Laboratory results from patent publication US20250026724A1, “(1,4,5-TRISUBSTITUTED 1H-PYRAZOL-3-YL)OXY-2-ALKYLTHIOALKYL ACIDS AND -ALKYL ACID DERIVATIVES, SALTS THEREOF AND USE THEREOF AS ACTIVE HERBICIDAL INGREDIENTS” (BAYER AKTIENGESELLSCHAFT, priority 2021, published 2025).

Experiments:
Format in all cases: in vivo
[1] = test system: Lolium rigidum (LOLRI); assay: Post-emergence herbicidal action, greenhouse pot trial; details: visual rating after about 3 weeks; for pest or weed control at 320 g/ha: Lolium rigidum, 504 h, read-out: Post-emergence effect at 320 g/ha against LOLRI in %
How it was run: (§1)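 Greenhouse-grown plants, sown in sandy loam, sprayed at the one-leaf stage (2–3 weeks after sowing) with WP or EC formulations in water plus 0.5% additive, 600 l/ha. Rates of 320 g/ha or lower. Visual rating after about 3 weeks versus untreated controls (100% = dead, 0% = as control).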

[2] = test system: Digitaria sanguinalis (DIGSA); assay: as above; details: visual rating after about 3 weeks; for pest or weed control at 320 g/ha: Digitaria sanguinalis, 504 h, read-out: Post-emergence effect at 320 g/ha against DIGSA in %
How it was run: as §1

[3] = test system: Avena fatua (AVEFA); assay: as above; details: 320 g/ha, visual rating after about 3 weeks; for pest or weed control at 320 g/ha: Avena fatua, 504 h, read-out: Post-emergence effect at 320 g/ha against AVEFA in %
How it was run: as §1

[4] = test system: Bassia scoparia (KCHSC); assay: as above
How it was run: as §1

[5] = test system: Setaria viridis (SETVI); assay: as above; details: visual rating after about 3 weeks; for pest or weed control at 320 g/ha: Setaria viridis, 504 h, read-out: Post-emergence effect at 320 g/ha against SETVI in %
How it was run: as §1

[6] = test system: Polygonum convolvulus (POLCO); assay: as above; details: visual rating after about 3 weeks; for pest or weed control at 80 g/ha / pest or weed control at 320 g/ha: Fallopia convolvulus, 504 h; for pest or weed control at 80 g/ha: read-out: Post-emergence effect at 80 g/ha against POLCO in %; for pest or weed control at 320 g/ha: read-out: Post-emergence effect at 320 g/ha against POLCO in %
How it was run: as §1

[7] = test system: Alopecurus myosuroides (ALOMY); assay: as above; details: 320 g/ha, visual rating after about 3 weeks
How it was run: as §1

[8] = test system: Abutilon theophrasti (ABUTH); assay: as above; details: visual rating after about 3 weeks; for pest or weed control at 80 g/ha / pest or weed control at 320 g/ha: Abutilon theophrasti, 504 h; for pest or weed control at 80 g/ha: read-out: Post-emergence effect at 80 g/ha against ABUTH in %; for pest or weed control at 320 g/ha: read-out: Post-emergence effect at 320 g/ha against ABUTH in %
How it was run: as §1

[9] = test system: Matricaria inodora (MATIN); assay: as above; details: visual rating after about 3 weeks; for pest or weed control at 80 g/ha / pest or weed control at 320 g/ha: Tripleurospermum inodorum, 504 h; for pest or weed control at 80 g/ha: read-out: Post-emergence effect at 80 g/ha against MATIN in %; for pest or weed control at 320 g/ha: read-out: Post-emergence effect at 320 g/ha against MATIN in %
How it was run: as §1

[10] = test system: Echinochloa crus-galli (ECHCG); assay: as above; details: visual rating after about 3 weeks; for pest or weed control at 320 g/ha: read-out: Post-emergence effect at 320 g/ha against ECHCG in %
How it was run: as §1

[11] = test system: Amaranthus retroflexus (AMARE); assay: as above; details: visual rating after about 3 weeks; for pest or weed control at 80 g/ha / pest or weed control at 320 g/ha: Amaranthus retroflexus, 504 h; for pest or weed control at 80 g/ha: read-out: Post-emergence effect at 80 g/ha against AMARE in %; for pest or weed control at 320 g/ha: read-out: Post-emergence effect at 320 g/ha against AMARE in %
How it was run: as §1

[12] = test system: Triticum aestivum (TRZAS); assay: Post-emergence crop plant compatibility, greenhouse pot trial; details: for Post-emergence effect at 320 g/ha against TRZAS in %: in vivo
Procedure: Seeds of monocotyledonous and dicotyledonous weeds and crop plants are placed in sandy loam in plastic or organic planting pots, covered with soil and cultivated in a greenhouse under controlled growth conditions. 2 to 3 weeks after sowing, the trial plants are treated at the one-leaf stage. The compounds of the invention, formulated in the form of wettable powders (WP) or as emulsion concentrates (EC), are then sprayed onto the green parts of the plants as aqueous suspension or emulsion with addition of 0.5% additive at a water application rate equivalent to 600 l/ha. After about 3 weeks of keeping the trial plants in the greenhouse under optimum growth conditions, the effect of the preparations is rated visually in comparison to untreated controls. For example, 100% activity=the plants have died, 0% activity=like control plants.
The observed effects on selected crop plants are reported here in comparison to the untreated controls (values in %). The appendices “a”, “b” and “c” give differentiation by dosage used with otherwise the same useful plants tested.
As shown by results from Tables B1 to B19, inventive compounds of the general formula (I) in the case of post-emergence treatment have good herbicidal efficacy against harmful plants, for example Abutilon theophrasti (ABUTH), Alopecurus myosuroides (ALOMY), Amaranthus retroflexus (AMARE), Avena fatua (AVEFA), Digitaria sanguinalis (DIGSA), Echinochloa crus-galli (ECHCG), Bassia scoparia (KCHSC), Lolium rigidum (LOLRI), Matricaria inodora (MATIN), Pharbitis purpurea (PHBPU), Polygonum convolvulus (POLCO), Setaria viridis (SETVI), Veronica persica (VERPE) and Viola tricolor (VIOTR) at an application rate of 320 g of active substance or less per hectare, and good crop plant compatibility in the case of organisms such as Oryza sativa (ORYSA), Zea mays (ZEAMX), Brassica napus (BRSNW), Glycine max (GLXMA) and Triticum aestivum (TRZAS) at an application rate of 320 g or less per hectare.

[13] = test system: Viola tricolor (VIOTR); assay: Post-emergence herbicidal action, greenhouse pot trial; details: Viola tricolor, 504 h, read-out: Post-emergence effect against VIOTR
How it was run: as §1

[14] = test system: Pharbitis purpurea (PHBPU); assay: as above; details: visual rating after about 3 weeks; for pest or weed control at 80 g/ha / pest or weed control at 320 g/ha: Ipomoea purpurea, 504 h; for pest or weed control at 80 g/ha: read-out: Post-emergence effect at 80 g/ha against PHBPU in %; for pest or weed control at 320 g/ha: read-out: Post-emergence effect at 320 g/ha against PHBPU in %
How it was run: as §1

[15] = test system: Veronica persica (VERPE); assay: as above; details: visual rating after about 3 weeks; for pest or weed control at 320 g/ha: Veronica persica, 504 h, read-out: Post-emergence effect at 320 g/ha against VERPE in %
How it was run: as §1

[16] = Echinochloa crus-galli, 504 h, 320 g/ha

Row | SMILES | pest or weed control at 320 g/ha ([2]; 320 g/ha) [%] | pest or weed control at 320 g/ha ([5]; 320 g/ha) [%] | pest or weed control at 80 g/ha [13] [%] | pest or weed control at 320 g/ha [13] [%] | pest or weed control at 80 g/ha ([6]; 80 g/ha) [%] | pest or weed control at 320 g/ha ([6]; 320 g/ha) [%] | pest or weed control at 320 g/ha ([8]; 320 g/ha) [%] | pest or weed control at 320 g/ha [14] [%] | pest or weed control at 80 g/ha ([9]; 80 g/ha) [%] | pest or weed control at 320 g/ha ([9]; 320 g/ha) [%] | pest or weed control at 320 g/ha [10, 16] [%] | pest or weed control at 80 g/ha ([11]; 80 g/ha) [%] | pest or weed control at 320 g/ha ([11]; 320 g/ha) [%] | pest or weed control at 20 g/ha [13] [%] | Post-emergence effect at 320 g/ha against TRZAS in % [12] [%] | pest or weed control at 320 g/ha [15] [%] | other results
1 | COC(=O)CCOC(=O)C(Oc1nn(-c2ncccc2F)c(-c2ccc(F)nc2)c1Br)SC (racemic) [Example I-32] | – | – | – | – | – | – | – | – | – | – | – | – | – | – | – | – | Post-emergence effect at 320 g/ha against LOLRI in % ([1]; 320 g/ha): 80%; Post-emergence effect at 80 g/ha against DIGSA in % [2]: 90%; Post-emergence effect at 320 g/ha against DIGSA in % ([2]; 320 g/ha): 90%; Post-emergence effect at 320 g/ha against AVEFA in % [3]: 90%; Post-emergence effect against KCHSC ([4]; 80 g/ha): 80%; Post-emergence effect against KCHSC ([4]; 320 g/ha): 90%; Post-emergence effect at 320 g/ha against SETVI in % ([5]; 320 g/ha): 80%; Post-emergence effect at 80 g/ha against POLCO in % ([6]; 80 g/ha): 80%; Post-emergence effect at 320 g/ha against POLCO in % ([6]; 320 g/ha): 90%; Post-emergence effect at 320 g/ha against ALOMY in % [7]: 90%; Post-emergence effect at 80 g/ha against ABUTH in % ([8]; 80 g/ha): 80%; Post-emergence effect at 320 g/ha against ABUTH in % ([8]; 320 g/ha): 90%; Post-emergence effect at 80 g/ha against MATIN in % ([9]; 80 g/ha): 80%; Post-emergence effect at 320 g/ha against MATIN in % ([9]; 320 g/ha): 80%; Post-emergence effect at 320 g/ha against ECHCG in % ([10]; 320 g/ha): 90%; Post-emergence effect at 80 g/ha against AMARE in % ([11]; 80 g/ha): 80%; Post-emergence effect at 320 g/ha against AMARE in % ([11]; 320 g/ha): 80%; Post-emergence effect against TRZAS (crop plant compatibility) ([12]; 20 g/ha, post-emergence, in comparison to untreated controls): 0%
2 | CCOC(=O)C(Oc1nn(-c2ncccc2F)c(-c2ccc(F)nc2)c1Br)SC (single isomer, unassigned) [Example I-28] | 90 | 90 | 80 | 90 | 90 | 90 | 80 | 90 | 80 | 90 | 90 | 90 | 90 | – | – | – | Post-emergence effect at 80 g/ha against LOLRI in % ([1]; 80 g/ha): 90%; pest or weed control at 320 g/ha ([1]; 320 g/ha): 90%; Post-emergence effect at 80 g/ha against DIGSA in % [2]: 80%; pest or weed control at 320 g/ha [3]: 80%; Post-emergence effect against KCHSC ([4]; 320 g/ha): 80%; Post-emergence effect at 80 g/ha against SETVI in % [5]: 80%; pest or weed control at 320 g/ha ([7]; Alopecurus myosuroides, 504 h, read-out: Post-emergence effect at 320 g/ha against ALOMY in %): 90%; pest or weed control at 80 g/ha ([8]; 80 g/ha): 80%; Post-emergence effect at 20 g/ha against PHBPU in % ([14]; 20 g/ha): 80%; pest or weed control at 80 g/ha [14]: 90%; pest or weed control at 80 g/ha ([10]; Echinochloa crus-galli, 504 h, 80 g/ha, read-out: Post-emergence effect at 80 g/ha against ECHCG in %): 90%; Post-emergence effect at 20 g/ha against AMARE in % [11]: 80%
3 | CCOC(=O)C(Oc1nn(-c2cc(F)ccc2F)c(-c2cncc(F)c2)c1Br)SC (centres unmarked) [Example I-03, ethyl {[4-bromo-1-(2,5-difluorophenyl)-5-(5-fluoropyridin-3-yl)-1H-pyrazol-3-yl]oxy}(methylsulfanyl)acetate] | 80 | 90 | 90 | 90 | – | – | 80 | 80 | 80 | 90 | 90 | – | – | 80 | 20 | – | Post-emergence effect at 80 g/ha against SETVI in % [5]: 80%
4 | CSC(Oc1nn(-c2cc(F)ccc2F)c(-c2cncc(F)c2)c1Br)C(=O)O (centres unmarked) [Example I-06] | 80 | – | 80 | 90 | – | – | – | 80 | – | 90 | 90 | – | – | – | 20 | – | –
5 | COC(=O)C(Oc1nn(-c2cc(F)ccc2F)c(-c2cncc(F)c2)c1C1CC1)SC (centres unmarked) [Example I-08] | – | 90 | 90 | 90 | 90 | 90 | – | 90 | – | 80 | 80 | 80 | 80 | 90 | – | 90 | Post-emergence effect at 80 g/ha against VERPE in % ([15]; 80 g/ha): 80%; pest or weed control at 80 g/ha [14]: 80%
6 | CCOC(=O)C(Oc1nn(-c2ncccc2F)c(-c2ccccc2)c1Br)SC (centres unmarked) [Example I-11] | – | – | – | – | 80 | 80 | 80 | – | – | 80 | 80 | 80 | 90 | – | 0 | – | –
7 | CSC(Oc1nn(-c2ncccc2F)c(-c2cncc(F)c2)c1C1CC1)C(=O)O (centres unmarked) [Example I-44] | – | 80 | 90 | 90 | – | 80 | 90 | – | 80 | 90 | 90 | 90 | 90 | 90 | – | 90 | pest or weed control at 320 g/ha [3]: 90%; pest or weed control at 320 g/ha ([4]; Bassia scoparia, 504 h, 320 g/ha, read-out: Post-emergence effect against KCHSC): 90%; Post-emergence effect at 20 g/ha against AMARE in % [11]: 80%
8 | CCOC(=O)C(Oc1nn(-c2ccccc2F)c(-c2ccc(F)nc2)c1C(F)(F)F)SC (centres unmarked) [Example I-46] | 80 | 80 | 80 | 90 | – | 80 | 80 | – | – | 90 | 90 | 80 | 80 | 80 | – | 80 | pest or weed control at 320 g/ha ([1]; 320 g/ha): 100%; pest or weed control at 80 g/ha ([8]; 80 g/ha): 80%
